“Also recorded” adds a separate entry of the source.
Columns and labels:
tumors of HT1376 cells = assay: Murine xenograft of HT1376 cells, tumor volume; assay type: in vivo, mice; settings: DMAT at effective dosage levels (in DMSO) per animal per day, 36 days
Experimental: FIG. 95 illustrates the effect of administration of DMAT s compared to a control over a time period of 36 days. FIG. 95 is a graph of a murine xenograft treated with DMAT, compared to a control. Mice with tumors of HT1376 cells were treated with DMAT at effective dosage levels (in DMSO) per animal per day. The daily animal weight was averaged at 32.5 g at the start of treatment. Tumors were measured daily and tumor volumes were calculated based upon a prolate spheroid model. FIG. 95 illustrates the significant benefits of treatment with DMAT (circles) as compared to the control (squares). Although the tumor size increased for HT1376 cells treated with DMAT, the tumor volume remained approximately one-half of the size as that associated with the untreated HT1376 cells.

[1] = 25 mg/kg twice daily, injections in mice; cited from earlier work
MCF-7 cells [2] = assay: Annexin V apoptosis/necrosis assay, MCF-7; assay type: cell-based, human
Experimental: Apoptosis Assays using Flow Cytometry with Annexin V-FITC and propidium iodide (PI). For induction of typical apoptosis, cells were grown in the presence of 1 μM staurosporine (Sigma-Aldrich) for 6 hours. The staurosporine treated cells were stained as follows: control 1 with PI, control 2 with Annexin V-FITC and control 3 both PI and Annexin V-FITC in order to have the brightest controls for compensation and proper collection of the flow cytometry data. Cell necrosis was induced by heat shock (65° C. for 30 minutes). The stained control, both PI and Annexin V-FITC labeled, was then used as the reference in establishing the level of apoptosis induced by the treatments. Data was collected on logarithmic modes, two-colors. Annexin V-FITC corresponds to FL1 H channel, and PI to FL3H or FL2H channels.
Annexin V-FITC and PI apoptosis assay staining protocol. Apoptosis Annexin V-FITC and PI kit from BD Biosciences, CA, USA, was used. 10^5-10^6 cells were stained with 50 μg/ml PI and with 0.5 μg/ml FITC-labeled Annexin V using the staining protocol provided by the supplier. Samples were then analyzed immediately by flow cytometry.

WM-164 cells = assay: Proliferation assay in vitro, WM-164; assay type: cell-based, human; settings: for cell counts: four days
Source text: (§1) Viability (proliferation) assay, Trypan blue exclusion. Cells were counted using a Neubauer hemacytometer.

MCF-7 cells [3] = assay: Proliferation assay in vitro, MCF-7; assay type: cell-based, human; settings: five days
Source text: as §1

MEG-01 xenografts = assay: In vivo therapy of MEG-01 xenografts, tumor volume; design: species or system mice; settings: for tumor volume: subcutaneous in the neck, 2 weeks
Source text: Creation of MEG-01 xenografts. Immunodeficient male athymic nude nu/nu mice were used, provided and housed by Dr. Lindner, D J from Taussig Cancer Center, Cleveland Clinic and Case Western Reserve University. The mice were checked every day. The mice were housed in filtered air flow cabinets with autoclaved bedding at a density of 5 mice/cage. They were fed autoclaved Purina Lab Rodent Chow® 5010 and HCl-acidified distilled water ad libitum and were placed in rooms with controlled temperature, humidity and 12-hr light-dark cycles. Procedures involving animals and their care were conducted in conformity with the institutional guidelines that are in compliance with national and international laws and policies (EEC Council Directive 86/609, OJL 358, Dec. 1, 1987, and the National Institutes of Health Guide for the Care and Use of Laboratory, Animals, NIH Publication 85-23, 1985).
For engraftment, cells in cell culture media were injected. MEG-01 myeloid blast crisis cells (10×10^6 cells/100 μl in cell culture media (RPMI 1640 1×, 10% FBS) were injected subcutaneously into the lower flanks of mice (left and right). Cells were counted with a hemacytometer using Trypan blue (only live cells were counted).
After 10 days the mice developed tumors large enough to start the treatment. Tumors were visible after 6-7 days from inoculation. The average weight of the mice typically ranged 30-35 g. Treatment with DMAT was started when tumors were at least 100-200 mm^3 volumes (prolate spheroid). Tumor volumes were calculated as prolate spheroid (4/3*π*(a)^2*(b), where “2a” is the minor axis and “2b” is the major axis of the prolate spheroid. “2a” and “2b” were measured with a caliper (mm). Animals were treated with DMAT for approximately 2 weeks. When tumor volumes reached a size unacceptable with the IACUC protocols, animals were sacrificed in a CO2 euthanasia chamber. Tumors were collected for further histological analysis. […]
In vivo therapy with DMAT of MEG-01 xenografts. […] Tumor diameters were measured using a caliper and tumor volume was calculated using the prolate-spheroid formula. […]

MEG-01 cells = assay: Flow cytometric DNA content assay using PI/RNAse A; assay type: cell-based, human; settings: 10 μM DMAT for 4 days
Experimental: Flow cytometric DNA content assessment assay using PI/RNAse A. Cells were serum starved in order to synchronize them in the GO phase. Treatment with DMAT 10 μM for a period of 4 days was performed and then cells were collected for further processing. Cells were fixed in 80% cold Ethanol/PBS added drop-wise. Before PI staining cells were washed with sterile, RNAse, DNAse free, PBS buffer. Fixed cells were incubated with 50 μg/ml PI and 100 μg/ml RNAse A-I in hypotonic citrate staining buffer for 30 minutes in dark, at room temperature.

## CN(C)c1nc2c(Br)c(Br)c(Br)c(Br)c2[nH]1 [DMAT, 2-dimethylamino-4,5,6,7-tetrabromo-1H-benzimidazole]
Tumors of HT1376 cells
  tumor volume relative to untreated HT1376 cells: approximately one-half
[1]
  effect on the kidney, bone marrow, and liver as assessed histologically: had no effect
MCF-7 cells [2]; 10 μM DMAT, 24 hours
  level of apoptotic cells: 28.4%
  level of necrotic cells: 8.7%
MCF-7 cells [2]; 20 μM DMAT
  level of apoptotic cells: 49.0%
  level of necrotic cells: 7.8%
WM-164 cells
  sensitivity of proliferation to DMAT compared with MCF-7 and SW-480: more resistant
WM-164 cells; 10 μM DMAT
  cell counts: cell counts between those of the control and those of the WM-164 cells treated with 20 μM
WM-164 cells; 20 μM DMAT
  cell counts: lowest cell counts
MCF-7 cells [3]; 10 μM DMAT
  cell counts: cell counts between the control and the MCF-7 cells treated with 20 μM
MCF-7 cells [3]; 20 μM DMAT
  cell counts / proliferation: lowest cell counts; also recorded: proliferation arrest
MEG-01 xenografts; DMAT 2 mg (in DMSO) per animal per day
  tumor volume: proliferation arrest in vivo in large tumors and tumor ablation in small tumors
MEG-01 xenografts; DMAT 3 mg (in DMSO) per animal per day
  tumor volume: proliferation arrest in vivo for large tumors and tumor ablation in small tumors
MEG-01 xenografts; mouse, in vivo
  response of xenograft tumors to treatment (summary): tumor ablation
MEG-01 cells
  DNA content (ploidy): become polyploid (ploidy higher than 2N)

Reference: patent US20090054507A1, “CONTROL OF MALIGNANT CELLS BY KINASE INHIBITION” (CLEVELAND STATE UNIVERSITY, priority 2006, published 2009)
